Measured values from US9084758B2, “Antiviral compositions comprising ethanol extract of Tetracera scandens and use thereof” (The Catholic University of Korea Industry-Academic …, priority 2012, dated 2015).

Columns and labels:
[1] = system: human immunodeficiency virus (HIV); experiment: Antiviral activity in HIV-infected (Nef substituted with EGFP) MT-4 cells: GFP fluorescence, HIV-1 p24 Antigen Capture Assay; type: cell-based; conditions: 1 nM, 3 days
Method: Thereafter, the cultured cells were centrifuged at 6,000 rpm for 3 minutes to obtain a cell pallet. Then, fluorescence intensity of a green fluorescence protein (GFP) secreted from the obtained cells was measured, a level of viral infection was confirmed using an HIV-1 p24 Antigen Capture Assay kit (Advanced BioScience Laboratories), and cell viability was determined using an MTT assay. 0.5% DMSO and 1 nM 3′-azido-3′-deoxy-thyminine (AZT) were used as the negative and positive controls, respectively.

[2] = biological target: HIV reverse transcriptase (Human immunodeficiency virus type 1 group M subtype B, UniProt P04585); experiment: Inhibition of reverse transcriptase activity, Enzchek Reverse Transcriptase assay kit; type: biochemical; conditions: positive controls, FIG. 3

Cc1cn([C@H]2C[C@H](N=[N+]=[N-])[C@@H](CO)O2)c(=O)[nH]c1=O [AZT, 3′-azido-3′-deoxy-thyminine]
antiviral activity [1]: 49.8%
inhibition of reverse transcriptase activities (in words) [2]: not inhibited

Cc1cn([C@H]2C[C@H](N=[N+]=[N-])[C@@H](CO[P@](=O)(O)O[P@](=O)(O)OP(=O)(O)O)O2)c(=O)[nH]c1=O [AZTTP]
inhibition of reverse transcriptase activities (in words) [2]: increasingly expressed according to a concentration

Cc1cc(C#N)cc(C)c1Oc1nc(Nc2ccc(C#N)cc2)nc(N)c1Br [Etravirine]
inhibition of reverse transcriptase activities (in words) [2]: increasingly expressed according to a concentration
